Measurements: patent US6960614B2, “Oxygenated esters of 4-lodo phenylamino benzhydroxamic acids” (Warner-Lambert Company, priority 2000, dated 2005)
pIC50: −log10 of the molar value.

Tested on: MEK
Assay: Cellular Assay for Measuring MEK Inhibition (inhibition of ERK phosphorylation in C26 cells, Western blot)
Assay type: cell-based, murine
Conditions: for % Inhibition @ 0.1 μM / % Inhibition @ 1 μM / % Inhibition @ 10 μM: ERK phosphorylation in C26 cells; for pIC50: inhibition of ERK phosphorylation in murine colon 26 (C26) carcinoma cells, determined graphically from dose response curve
Outline: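 Read-out is phospho-ERK1/2 by Western blot, normalized against total ERK1/2 after stripping and re-probing. Murine C26 colon carcinoma cells in exponential growth were exposed to a range of compound concentrations at 37° C before lysis.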

Row | pIC50 | SMILES | % Inhibition @ 0.1 μM [%] | % Inhibition @ 1 μM [%] | % Inhibition @ 10 μM [%]
1 |  | CC(O)CONC(=O)c1cc(Cl)c(F)c(F)c1Nc1ccc(F)cc1F (centres unmarked) [Example 166, 5-Chloro-2-(2,4-difluoro-phenylamino)-3,4-difluoro-N-(2-hydroxy-propoxy)-benzamide] | 0 | 31.9 | 88.7
2 |  | CC(O)CONC(=O)c1ccc(F)c(F)c1Nc1ccc(F)cc1F (centres unmarked) [Example 167, 2-(2,4-Difluoro-phenylamino)-3,4-difluoro-N-(2-hydroxy-propoxy)-benzamide] |  | 80.5 | 89.2
3 |  | CC(O)CONC(=O)c1ccc(F)c(F)c1Nc1ccc(Cl)cc1F (centres unmarked) [Example 168, 2-(4-Chloro-2-fluoro-phenylamino)-3,4-difluoro-N-(2-hydroxy-propoxy)-benzamide] | 48.8 | 89.5 | 
4 | 7.85 | CC(O)CONC(=O)c1cc(F)c(F)cc1Nc1ccc(I)cc1F (centres unmarked) [Example 169, 4,5-Difluoro-2-(2-fluoro-4-iodo-phenylamino)-N-(2-hydroxy-propoxy)-benzamide] |  |  | 
5 |  | CC(C)(O)CONC(=O)c1cc(F)c(F)c(F)c1Nc1ccc(I)cc1Cl [Example 170, 2-(2-Chloro-4-iodo-phenylamino)-3,4,5-trifluoro-N-(2-hydroxy-2-methyl-propoxy)-benzamide] | 19 | 85.7 | 
6 |  | Cc1cc(I)ccc1Nc1c(C(=O)NOCC(C)(C)O)cc(F)c(F)c1F [Example 171, 3,4,5-Trifluoro-N-(2-hydroxy-2-methyl-propoxy)-2-(4-iodo-2-methyl-phenylamino)-benzamide] | 35.6 | 94.6 | 
7 |  | Cc1cc(I)ccc1Nc1c(C(=O)NOCC(C)(C)O)cc(Br)c(F)c1F [Example 172, 5-Bromo-3,4-difluoro-N-(2-hydroxy-2-methyl-propoxy)-2-(4-iodo-2-methyl-phenylamino)-benzamide] | 41.9 | 92.9 | 
8 | 6.52 | CC(C)(O)CONC(=O)c1cc(Br)c(F)c(F)c1Nc1ccc(I)cc1Cl [Example 173, 5-Bromo-2-(2-chloro-4-iodo-phenylamino)-3,4-difluoro-N-(2-hydroxy-2-methyl-propoxy)-benzamide] |  |  | 
9 | 7.00 | Cc1cc(I)ccc1Nc1c(C(=O)NOCC(C)(C)O)ccc(F)c1F [Example 174, 3,4-Difluoro-N-(2-hydroxy-2-methyl-propoxy)-2-(4-iodo-2-methyl-phenylamino)-benzamide] |  |  | 
10 | 6.74 | CC(C)(O)CONC(=O)c1cc(Cl)c(F)c(F)c1Nc1ccc(I)cc1Cl [Example 175, 5-Chloro-2-(2-chloro-4-iodo-phenylamino)-3,4-difluoro-N-(2-hydroxy-2-methyl-propoxy)-benzamide] |  |  | 
11 |  | Cc1cc(I)ccc1Nc1c(C(=O)NOCC(C)(C)O)cc(Cl)c(F)c1F [Example 176, 5-Chloro-3,4-difluoro-N-(2-hydroxy-2-methyl-propoxy)-2-(4-iodo-2-methyl-phenylamino)-benzamide] | 14.1 | 87.7 | 
12 |  | CC(C)(O)CONC(=O)c1ccc(F)c(F)c1Nc1ccc(I)cc1F [Example 177, 3,4-Difluoro-2-(2-fluoro-4-iodo-phenylamino)-N-(2-hydroxy-2-methyl-propoxy)-benzamide] | 91.6 | 95.7 | 
13 |  | CC(C)(O)CONC(=O)c1cc(Br)c(F)c(F)c1Nc1ccc(I)cc1F [Example 178, 5-Bromo-3,4-difluoro-2-(2-fluoro-4-iodo-phenylamino)-N-(2-hydroxy-2-methyl-propoxy)-benzamide] | 61.8 | 94.9 | 
14 |  | CC(C)(O)CONC(=O)c1cc(Cl)c(F)c(F)c1Nc1ccc(I)cc1F [Example 179, 5-Chloro-3,4-difluoro-2-(2-fluoro-4-iodo-phenylamino)-N-(2-hydroxy-2-methyl-propoxy)-benzamide] | 90.4 | 99.3 | 
15 |  | CC(C)(O)CONC(=O)c1cc(Cl)c(F)c(F)c1Nc1ccc(F)cc1F [Example 180, 5-Chloro-2-(2,4-difluoro-phenylamino)-3,4-difluoro-N-(2-hydroxy-2-methyl-propoxy)-benzamide] |  | 34 | 58.6
16 |  | CC(C)(O)CONC(=O)c1ccc(F)c(F)c1Nc1ccc(F)cc1F [Example 181, 2-(2,4-Difluoro-phenylamino)-3,4-difluoro-N-(2-hydroxy-2-methyl-propoxy)-benzamide] |  | 0 | 65.1
17 |  | CC(C)(O)CONC(=O)c1ccc(F)c(F)c1Nc1ccc(Br)cc1F [Example 182, 2-(4-Bromo-2-fluoro-phenylamino)-3,4-difluoro-N-(2-hydroxy-2-methyl-propoxy)-benzamide] | 13.1 | 81.9 | 
18 | 7.28 | O=C(NOCC(O)COc1ccccc1)c1ccc(F)c(F)c1Nc1ccc(I)cc1Cl (centres unmarked) [Example 183] |  |  | 
19 |  | O=C(NOCC(O)COc1ccccc1)c1cc(F)c(F)c(F)c1Nc1ccc(I)cc1Cl (centres unmarked) [Example 184, 2-(2-Chloro-4-iodo-phenylamino)-3,4,5-trifluoro-N-(2-hydroxy-3-phenoxy-propoxy)-benzamide] | 16.1 | 82.5 | 
20 |  | Cc1cc(I)ccc1Nc1c(C(=O)NOCC(O)COc2ccccc2)cc(F)c(F)c1F (centres unmarked) [Example 185, 3,4,5-Trifluoro-N-(2-hydroxy-3-phenoxy-propoxy)-2-(4-iodo-2-methyl-phenylamino)-benzamide] | 6.2 | 71.9 | 
21 | 7.47 | O=C(NOCC(O)COc1ccccc1)c1cc(Br)c(F)c(F)c1Nc1ccc(I)cc1Cl (centres unmarked) [Example 186, 5-Bromo-2-(2-chloro-4-iodo-phenylamino)-3,4-difluoro-N-(2-hydroxy-3-phenoxy-propoxy)-benzamide] |  |  | 
22 |  | Cc1cc(I)ccc1Nc1c(C(=O)NOCC(O)COc2ccccc2)cc(Br)c(F)c1F (centres unmarked) [Example 187, 5-Bromo-3,4-difluoro-N-(2-hydroxy-3-phenoxy-propoxy)-2-(4-iodo-2-methyl-phenylamino)-benzamide] | 13.8 | 83.3 | 
23 | 7.36 | Cc1cc(I)ccc1Nc1c(C(=O)NOCC(O)COc2ccccc2)ccc(F)c1F (centres unmarked) [Example 188, 3,4-Difluoro-N-(2-hydroxy-3-phenoxy-propoxy)-2-(4-iodo-2-methyl-phenylamino)-benzamide] |  |  | 
24 |  | Cc1cc(I)ccc1Nc1c(C(=O)NOCC(O)COc2ccccc2)cc(Cl)c(F)c1F (centres unmarked) [Example 190, 5-Chloro-3,4-difluoro-N-(2-hydroxy-3-phenoxy-propoxy)-2-(4-iodo-2-methyl-phenylamino)-benzamide] | 51.5 | 94.6 | 
25 | 8.22 | O=C(NOCC(O)COc1ccccc1)c1ccc(F)c(F)c1Nc1ccc(I)cc1F (centres unmarked) [Example 191, 3,4-Difluoro-2-(2-fluoro-4-iodo-phenylamino)-N-(2-hydroxy-3-phenoxy-propoxy)-benzamide] |  |  | 
26 | 8.15 | O=C(NOCC(O)COc1ccccc1)c1cc(Cl)c(F)c(F)c1Nc1ccc(I)cc1F (centres unmarked) [Example 192, 5-Chloro-3,4-difluoro-2-(2-fluoro-4-iodo-phenylamino)-N-(2-hydroxy-3-phenoxy-propoxy)-benzamide] |  |  | 
